Read-outs that look alike come from different tables or passages of the source.
Key:
Carraghenin-Ödem = assay: Carrageenan-induced oedema test in rats (method of Winter et al.); format: in vivo; details: Ratten
Description: Die entzündungshemmende Wirkung wurde an Hand des Versuches mit dem von Carraghenin hervorgerufenen beziehungsweise induzierten Ödem (Carraghenin-Ödem) an Ratten, welcher im wesentlichen nach der Verfahrensweise von C. A. Winter und Mitarbeitern, J. Pharm. Expt. Ther. […] durchgeführt wurde, bewertet. Die Ergebnisse dieser Versuche sind in der folgenden Tabelle I zusammengestellt.

Granulome = assay: Cotton pellet granuloma test (method of Meier et al.); format: in vivo
Description: Ein weiterer Nachweis der starken entzündungshemmenden Wirkung der erfindungsgemäßen Verbindungen erfolgte mit Hilfe des Granulomwattekügelchenversuches, welcher im wesentlichen wie von R. Meier und Mitarbeitern, Experientia, 6 [1950], 1469 beschrieben durchgeführt wurde. Bei diesem Versuch wurden Granuloma durch Einsetzen eines Wattekügelchens in den intraskapularen Bereich des Versuchtieres gebildet. Die Versuchsergebnisse sind in der folgenden Tabelle 11 zusammengestellt.

[1] = system: durch das Reizmittel hervorgerufene Unterleibsschmerzkrümmungen; assay: Writhing test in mice (method of Wilkin et al.); format: in vivo, Mäusen; details: Mäuse; for ED50: Mus musculus, po, read-out: ED50 (Dosen, welche eine 50%ige Verminderung der Zusammenziehung herbeizuführen vermögen)
Description: Die schmerzlindernde Wirksamkeit wurde mit Hilfe des »Schmerzkrümmungsversuches« (»writhing test«) an Mäusen im wesentlichen nach der von Wilkin und Mitarbeitern in J. Pharm. Expt. Ther., 133 [1961 ], 409 beschriebenen Versuchsverfahrensweise bewertet. Repräsentative Versuche zeigten, daß die erfindungsgemäßen Verbindungen bei ihrer Verarbreichung in peroralen Dosen von etwa 30 bis 100 mg/kg gegenüber den Blindversuchen eine 50%ige Hemmung der durch das Reizmittel hervorgerufenen Unterleibsschmerzkrümmungen herbeiführten. Bei diesem Versuch zeigte sich, daß die schmerzlindernde Wirkung der erfindungsgemäßen Verbindung N-Acetyl-S-[D-2-(6'-methoxynaphth-2'-yl)-propionyl]-L-cystein (Verbindung der Beispiele 6 und 7) selbst 4 Stunden nach ihrer Verabreichung beträchtlich war.

| SMILES | Hemmung des Carraghenin-Ödemes in %, bezogen auf die Blindversuche (Carraghenin-Ödem; Perorale Dosis 50 mg/kg) [%] | Hemmung des Granulomes in %, bezogen auf die Blindversuche (Granulome; Perorale Dosis 40 mg/kg) [%] | Hemmung des Granulomes in %, bezogen auf die Blindversuche (Granulome; Perorale Dosis 80 mg/kg) [%] | schmerzlindernde Wirkung ([1]; 4 Stunden nach Verabreichung) | ED50 ([1]; 0.5 h, nach 30 Minuten) [mg/kg] | ED50 ([1]; 4 h, nach 4 Stunden) [mg/kg] | Hemmung des Carraghenin-Ödemes in %, bezogen auf die Blindversuche (Carraghenin-Ödem; Perorale Dosis 3 mg/kg) [%] | Hemmung des Carraghenin-Ödemes in %, bezogen auf die Blindversuche (Carraghenin-Ödem; Perorale Dosis 6 mg/kg) [%] | Hemmung des Carraghenin-Ödemes in %, bezogen auf die Blindversuche (Carraghenin-Ödem; Perorale Dosis 12 mg/kg) [%] | Hemmung des Carraghenin-Ödemes in %, bezogen auf die Blindversuche (Carraghenin-Ödem; Perorale Dosis 24 mg/kg) [%] |
| --- | --- | --- | --- | --- | --- | --- | --- | --- | --- | --- |
| COC(=O)[C@H](CS)NC(=O)[C@@H](C)c1ccc2cc(OC)ccc2c1 [Beispiel 2, N-[D-2-(6'-Methoxynaphth-2'-yl)-propionyl]-L-cysteinmethylester] | −57 |  |  |  |  |  |  |  |  |  |
| CCC1Cc2cc(CC(=O)N[C@@H](CS)C(=O)O)ccc2O1 (stereo partly drawn) [Beispiel 3, N-[2-(2'-Äthyl-2',3'-dihydrobenzofuran-5'-yl)-acetyl]-L-cystein] | −48 | −30 |  |  |  |  |  |  |  |  |
| COc1ccc2cc([C@H](C)C(=O)N[C@@H](CS)C(=O)O)ccc2c1 [Beispiel 4, N-[D-2-(6'-Methoxynaphth-2'-yl)-propionyl]-L-cystein] |  | −24 | −35 |  |  |  |  |  |  |  |
| COc1ccc2cc([C@H](C)C(=O)SC[C@H](NC(C)=O)C(=O)O)ccc2c1 [Beispiel 6 beziehungs-weise 7, N-Acetyl-S-[D-2-(6'-methoxynaphth-2'-yl)-propionyl]-L-cystein] |  | −28 | −49 | beträchtlich | 25 | 10 | −42 | −42 | −45 | −58 |

Source: patent publication EP0035641B1, “Cystein derivatives, process for their preparation and medicines containing them” (ALFA FARMACEUTICI S.p.A., priority 1980, dated 1981)
